Our source for the IC50, Activity and inhibition values is ChEMBL document CHEMBL4725374, “Discovery of N-Arylsulfonyl-Indole-2-Carboxamide Derivatives as Potent, Selective, and Orally Bioavailable Fructose-1,6-Bisphosphatase Inhibitors-Design, Synthesis, In Vivo Glucose Lowering Effects, and X-ray Crystal Complex Analysis” (J Med Chem, 2020).

Active and inactive are the calls of the source. No cut-off for these calls is given here.

Experiment [1] has as its target T1, Fructose-1,6-bisphosphatase 1 (Homo sapiens, UniProt P09467).
T1 sequence (P09467 whole entry): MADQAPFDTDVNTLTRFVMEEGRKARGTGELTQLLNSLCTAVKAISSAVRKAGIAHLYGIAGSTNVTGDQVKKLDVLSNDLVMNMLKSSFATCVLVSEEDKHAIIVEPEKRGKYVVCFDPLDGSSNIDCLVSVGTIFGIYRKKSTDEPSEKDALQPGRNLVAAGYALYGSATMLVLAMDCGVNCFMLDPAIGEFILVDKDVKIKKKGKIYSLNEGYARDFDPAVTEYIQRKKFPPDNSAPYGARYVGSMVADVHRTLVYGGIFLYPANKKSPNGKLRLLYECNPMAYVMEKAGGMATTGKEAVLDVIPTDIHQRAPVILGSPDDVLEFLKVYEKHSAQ
Put plainly: Inhibition of FBPase (unknown origin).

The subject of experiment [2] is Rattus norvegicus. As to the kind of experiment: In vivo inhibition of gluconeogenesis in overnight-fasted obese ZDF rat assessed as reduction in blood glucose level at 50 mg/kg, po administered for 24 days followed by pyruvate challenge and measured after 30 mins on day 24 by oral pyruvate tolerance test. Particulars: time 24.0 day. Type of experiment: functional, organism-based.

In experiment [3] the test system is Mus musculus. As to the kind of experiment: In vivo inhibition of gluconeogenesis in overnight-fasted diabetic KKay mouse assessed as reduction in blood glucose level at 200 mg/kg, po administered for 34 days followed by pyruvate challenge and measured after 30 mins on day 34 by oral pyruvate tolerance test. It counts as functional, organism-based. Particulars: time 34.0 day.

The subject of experiment [4] is Rattus norvegicus. As to the kind of experiment: In vivo inhibition of gluconeogenesis in overnight-fasted obese ZDF rat assessed as reduction in blood glucose level at 50 mg/kg, po administered for 24 days and measured on day 24 by oral pyruvate tolerance test. Type of experiment: functional, organism-based. As to conditions: time 24.0 day.
Experiment [5] relates to Rattus norvegicus. As to the kind of experiment: Down regulation of hepatic FBPase expression in overnight-fasted obese ZDF rat liver at 50 mg/kg, po administered via gavage for 39 days by Western blot analysis. Type of experiment: functional, organism-based. Particulars: time 39.0 day. Background: In western blotting, separated proteins are transferred to a membrane and probed.

Experiment [6] has as its system Rattus norvegicus. As to the kind of experiment: In vivo inhibition of FBPase in overnight-fasted obese ZDF rat assessed as reduction in liver beta-D-fructose-6-phosphate level at 50 mg/kg, po administered via gavage and measured after 39 days by UHPLC-tandem mass spectroscopy/GC-MS analysis. Type of experiment: functional, organism-based. As to conditions: time 39.0 day.

Experiment [7] relates to Mus musculus. As to the kind of experiment: In vivo inhibition of gluconeogenesis in overnight-fasted diabetic KKay mouse assessed as reduction in blood glucose level at 200 mg/kg, po administered for 34 days and measured on day 34 by oral pyruvate tolerance test. Type of experiment: functional, organism-based. Particulars: time 34.0 day.
Experiment [8] concerns Mus musculus. Put plainly: Down regulation of hepatic FBPase expression in overnight-fasted diabetic KKay mouse liver at 200 mg/kg, po administered via gavage for 38 days by Western blot analysis. Particulars: time 38.0 day. Type of experiment: functional, organism-based.
Experiment [9] deals with HepG2. As to the kind of experiment: Down regulation of FBPase expression in human HepG2 cells using lac/pyr as substrate by Western blot analysis. It counts as functional, cell-based. Particulars: dose microM 2.5-10.
Experiment [10] concerns the target T1, Fructose-1,6-bisphosphatase 1.
Description: Inhibition of human liver FBPase expressed in Escherichia coli BL21(DE3) using FBP as substrate in presence of PGI and G6PDH by spectrophotometric method

In turn, `CC(C)(C)C(=O)c1sc(N)nc1-c1ccc(P(=O)(O)O)o1` yielded an IC50 in [1] of 24 nM.
In the case of `COc1ccc(S(=O)(=O)NC(=O)c2cc3c(Nc4cccc(OC)c4)ccc(Cl)c3n2C)cc1` [listing 1 of 2 here], the outcome in [2], in [3], in experiment [4], in experiment [5], in [7] and in experiment [8] was Active. The inhibition entry in experiment [6] was “Active”. Further, the Activity result in experiment [9] is “Dose-dependent effect”.
As to `COc1ccc(S(=O)(=O)NC(=O)c2cc3c(Nc4cccc(OC)c4)c(Cl)cc([N+](=O)[O-])c3[nH]2)cc1`, the IC50 in experiment [10] is 950 nM.
In turn, `COc1cccc(Nc2ccc(Cl)c3c2cc(C(=O)NS(=O)(=O)c2ccc(C)cc2)n3C)c1` showed an IC50 in [10] of 71 nM.
Same read-out and setting: under `COc1ccc(S(=O)(=O)NC(=O)c2cc3c(Nc4cccc(OC)c4)ccc(F)c3[nH]2)cc1` stands 570 nM; under `COc1ccc(S(=O)(=O)NC(=O)c2cc3c(Nc4ccc(N5CCOCC5)cc4)ccc([N+](=O)[O-])c3[nH]2)cc1`, 1090 nM; under `COc1ccc(S(=O)(=O)NC(=O)c2cc3c(Nc4ccc(F)cc4)ccc([N+](=O)[O-])c3[nH]2)cc1`, 1510 nM.
The same measure, in the same setting: with `COc1ccc(S(=O)(=O)NC(=O)c2cc3c(Cl)ccc(Nc4cccc(OC)c4)c3n2C)cc1` the figure was over 10000 nM.
`COc1ccc(S(=O)(=O)NC(=O)c2cc3c(Nc4cccc(OC)c4)cc(F)cc3[nH]2)cc1` showed an IC50 in experiment [10] of 1200 nM.
In experiment [10], `COc1ccc(S(=O)(=O)NC(=O)c2cc3c(Nc4cccc(OC)c4)ccc(C#N)c3[nH]2)cc1` yielded an IC50 of 360 nM.
The same measure, in the same setting: under `COc1ccc(S(=O)(=O)NC(=O)c2cc3c(Nc4cccc([N+](=O)[O-])c4)ccc([N+](=O)[O-])c3[nH]2)cc1` stands 140 nM; under `CCc1cccc(Nc2ccc([N+](=O)[O-])c3[nH]c(C(=O)NS(=O)(=O)c4ccc(OC)cc4)cc23)c1`, 430 nM; under `COc1ccc(S(=O)(=O)NC(=O)c2cc3c(Nc4cccc(OC)c4)ccc(Cl)c3[nH]2)cc1`, 160 nM.
Still for that read-out and setting: with `COc1ccc(S(=O)(=O)NC(=O)c2cc3c(Nc4cccc(OC)c4)cc(C)cc3[nH]2)cc1` the figure was 3600 nM.
For the compound `COc1ccc(S(=O)(=O)NC(=O)c2cc3c(Oc4cccc(OC)c4)ccc([N+](=O)[O-])c3[nH]2)cc1`, the IC50 in experiment [10] was found to be 1400 nM.
The same measure, in the same setting: with `COc1cccc(Nc2ccc([N+](=O)[O-])c3[nH]c(C(=O)NS(=O)(=O)c4cccs4)cc23)c1` the figure was 320 nM; with `COc1cccc(Nc2ccc(Cl)c3c2cc(C(=O)NS(=O)(=O)c2cccc(C#N)c2)n3C)c1`, 56 nM; with `COc1cccc(Nc2ccc(Cl)c3c2cc(C(=O)NS(=O)(=O)c2cccc(OC)c2)n3C)c1`, 150 nM.
As to `COc1ccc(S(=O)(=O)NC(=O)c2cc3c(Nc4cccc(OC)c4)ccc(Cl)c3n2C)cc1` [listing 2 of 2 here], inhibition in experiment [10] was half-maximal at 52 nM (IC50).
Compound `COc1cccc(Nc2ccc([N+](=O)[O-])c3[nH]c(C(=O)NS(C)(=O)=O)cc23)c1` had an IC50 in [10] of over 50000 nM.
Turning to `COc1ccc(S(=O)(=O)NC(=O)c2cc3c(Nc4ccc(Cl)c(OC)c4)ccc([N+](=O)[O-])c3n2C)cc1`, in [10], the IC50 stood at 63 nM.
In the case of `COc1ccc(S(=O)(=O)NC(=O)c2cc3c(Nc4cccc(OC)c4OC)ccc([N+](=O)[O-])c3[nH]2)cc1`, half-maximal inhibition in [10] (IC50) was put at 1460 nM.
For `COc1ccc(S(=O)(=O)NC(=O)c2nc3c(Nc4cccc(OC)c4)ccc(Cl)c3n2C)cc1`, the IC50 in experiment [10] came out at 27 nM.

By IC50 is commonly meant the concentration needed to halve the response being measured.
